Test results taken from publication PMC7561186, “Rational design of balanced dual-targeting antibiotics with limited resistance” (PLoS Biology, 2020).
≈ marks a conversion by molar mass, not a printed value. Like-named read-outs stand apart in the source and are kept apart here.

What was measured:
[1] = system: S. aureus clinical isolates; assay: microbe, parasite or virus in culture; type: cell-based; details: Staphylococcus aureus, read-out: MIC
[2] = system: human hERG potassium ion channel
Procedure: Inhibition of the human hERG cardiac K+ ion channel was determined by Eurofins Panlabs (St. Charles, MO, USA) by using QPatch automated whole-cell patch-clamp electrophysiology, as described previously. […] During measurements, after whole-cell patch configuration was achieved, the cells were held at −80 mV. Next, a 500-millisecond pulse to −40 mV was delivered to measure the leaking current, which was then subtracted from the tail current’s readout. Then the cell was depolarized to +40 mV for 500 milliseconds and then to −80 mV over a 100-millisecond ramp to elicit the hERG tail current. This workflow was repeated once in every 8 seconds to monitor the current amplitude. The parameters measured during each test were the maximum tail current evoked on stepping to 40 mV and ramping back to −80 mV from the test pulse. All data were filtered for seal quality, seal drop, and current amplitude. The peak current amplitude was calculated before and after compound addition, and the amount of inhibition was assessed by dividing the test compound’s current amplitude by the control’s current amplitude. During our tests, the control was the mean hERG current amplitude collected 15 seconds at the end of each measurement, and the test compound was the mean hERG current amplitude collected in the presence of test compound at the given concentration.

For `Cc1[nH]c(C(=O)Nc2nc3c(OCc4ccccc4)cc(C(=O)O)cc3s2)c(Cl)c1Cl` [ULD2], the MIC ([1]; MRSA, S. aureus IHMA 1611612, MRSA / VSSA) was 0.25 µg/mL (≈ 0.525 µM), the MIC ([1]; MRSA, S. aureus IHMA 1612228, MRSA / VSSA) was 0.25 µg/mL (≈ 0.525 µM) and the MIC ([1]; MRSA, S. aureus IHMA 1620441, MRSA / VSSA) was 0.25 µg/mL (≈ 0.525 µM). It also gave an MIC ([1]; MRSA, S. aureus IHMA 1621638, MRSA / VSSA) of 0.5 µg/mL (≈ 1.05 µM), an MIC ([1]; MRSA, S. aureus IHMA 1622252, MRSA / VSSA) of 0.5 µg/mL (≈ 1.05 µM) and an MIC ([1]; MRSA, S. aureus IHMA 1622527, MRSA / VSSA) of 0.25 µg/mL (≈ 0.525 µM). The MIC ([1]; MRSA, S. aureus IHMA 1666371, MRSA / VSSA) was 0.25 µg/mL (≈ 0.525 µM), the MIC ([1]; MRSA, S. aureus IHMA 1695391, MRSA / VSSA) was 0.12 µg/mL (≈ 0.252 µM) and the MIC ([1]; MRSA, S. aureus IHMA 1703428, MRSA / VSSA) was 0.5 µg/mL (≈ 1.05 µM). For the same molecule, the MIC ([1]; MRSA, S. aureus IHMA 1720350, MRSA / VSSA) was 0.5 µg/mL (≈ 1.05 µM), the MIC ([1]; MRSA, S. aureus IHMA 1732989, MRSA / VSSA) was 0.5 µg/mL (≈ 1.05 µM) and the MIC ([1]; MRSA, S. aureus IHMA 1742231, MRSA / VSSA) was 0.12 µg/mL (≈ 0.252 µM). The MIC ([1]; MRSA, S. aureus IHMA 1766357, MRSA / VSSA) was 0.12 µg/mL (≈ 0.252 µM), the MIC ([1]; MSSA / NRS 12 / VISA, S. aureus IHMA 1308244, NRS12, MSSA / VISA) was 0.5 µg/mL (≈ 1.05 µM) and the MIC ([1]; MSSA / NRS 13 / VISA, S. aureus IHMA 1308245, NRS13, MSSA / VISA) was 0.5 µg/mL (≈ 1.05 µM). For the same molecule, the MIC ([1]; MSSA / NRS 14 / VISA, S. aureus IHMA 1308246, NRS14, MSSA / VISA) was 1 µg/mL (≈ 2.1 µM), the MIC ([1]; MSSA / NRS 17 / VISA, S. aureus IHMA 1308247, NRS17, MSSA / VISA) was 1 µg/mL (≈ 2.1 µM) and the MIC ([1]; MSSA / NRS 28 / VISA, S. aureus IHMA 1308249, NRS28, MSSA / VISA) was 1 µg/mL (≈ 2.1 µM). For the same molecule, the MIC ([1]; MSSA / NRS 52, S. aureus IHMA 1308252, NRS52, MSSA / VSSA* (*Expected VAN intermediate, confirmed VAN susceptible twice), test date 2018-11-07) was 0.12 µg/mL (≈ 0.252 µM), the MIC ([1]; MSSA / USA100 / VRSA, S. aureus IHMA 672236, VRS6, MSSA / VRSA, USA100) was 0.12 µg/mL (≈ 0.252 µM) and the MIC ([1]; MSSA, S. aureus IHMA 1563826, MSSA / VSSA) was 0.25 µg/mL (≈ 0.525 µM). It also gave an MIC ([1]; MSSA, S. aureus IHMA 1565492, MSSA / VSSA) of 0.12 µg/mL (≈ 0.252 µM), an MIC ([1]; MSSA, S. aureus IHMA 1569499, MSSA / VSSA) of 0.5 µg/mL (≈ 1.05 µM) and an MIC ([1]; MSSA, S. aureus IHMA 1569754, MSSA / VSSA) of 0.12 µg/mL (≈ 0.252 µM). It also gave an MIC ([1]; MSSA, S. aureus IHMA 1574202, MSSA / VSSA) of 0.25 µg/mL (≈ 0.525 µM), an MIC ([1]; MSSA, S. aureus IHMA 1575652, MSSA / VSSA) of 0.25 µg/mL (≈ 0.525 µM) and an MIC ([1]; MSSA, S. aureus IHMA 1575779, MSSA / VSSA) of 0.5 µg/mL (≈ 1.05 µM). It also gave an MIC ([1]; MSSA, S. aureus IHMA 1576329, MSSA / VSSA) of 0.5 µg/mL (≈ 1.05 µM), an MIC ([1]; MSSA, S. aureus IHMA 1577800, MSSA / VSSA) of 0.25 µg/mL (≈ 0.525 µM) and an MIC ([1]; MSSA, S. aureus IHMA 1578560, MSSA / VSSA) of 0.5 µg/mL (≈ 1.05 µM). For the same molecule, the MIC ([1]; MSSA, S. aureus IHMA 1580233, MSSA / VSSA) was 0.12 µg/mL (≈ 0.252 µM), the MIC ([1]; MSSA, S. aureus IHMA 1580925, MSSA / VSSA) was 0.25 µg/mL (≈ 0.525 µM) and the MIC ([1]; MSSA, S. aureus IHMA 1580955, MSSA / VSSA) was 0.5 µg/mL (≈ 1.05 µM). For the same molecule, the MIC ([1]; MSSA, S. aureus IHMA 1582586, MSSA / VSSA) was 0.5 µg/mL (≈ 1.05 µM), the MIC ([1]; MSSA, S. aureus IHMA 1582691, MSSA / VSSA) was 0.25 µg/mL (≈ 0.525 µM) and the MIC ([1]; MSSA, S. aureus IHMA 1584230, MSSA / VSSA) was 0.5 µg/mL (≈ 1.05 µM). For the same molecule, the MIC ([1]; MSSA, S. aureus IHMA 1587279, MSSA / VSSA) was 0.5 µg/mL (≈ 1.05 µM), the MIC ([1]; MSSA, S. aureus IHMA 1591459, MSSA / VSSA) was 0.25 µg/mL (≈ 0.525 µM) and the MIC ([1]; MSSA, S. aureus IHMA 1592749, MSSA / VSSA) was 0.5 µg/mL (≈ 1.05 µM). The MIC ([1]; MSSA, S. aureus IHMA 1592751, MSSA / VSSA) was 0.25 µg/mL (≈ 0.525 µM), the MIC ([1]; MSSA, S. aureus IHMA 1594297, MSSA / VSSA) was 1 µg/mL (≈ 2.1 µM) and the MIC ([1]; MSSA, S. aureus IHMA 1597120, MSSA / VSSA) was 0.5 µg/mL (≈ 1.05 µM). The MIC ([1]; MSSA, S. aureus IHMA 1597125, MSSA / VSSA) was 0.5 µg/mL (≈ 1.05 µM), the MIC ([1]; MSSA, S. aureus IHMA 1599157, MSSA / VSSA) was 0.5 µg/mL (≈ 1.05 µM) and the MIC ([1]; MSSA, S. aureus IHMA 1599506, MSSA / VSSA) was 0.12 µg/mL (≈ 0.252 µM). The MIC ([1]; MSSA, S. aureus IHMA 1602078, MSSA / VSSA) was 0.5 µg/mL (≈ 1.05 µM), the MIC ([1]; MSSA, S. aureus IHMA 1604586, MSSA / VSSA) was 0.25 µg/mL (≈ 0.525 µM) and the MIC ([1]; MSSA, S. aureus IHMA 1604609, MSSA / VSSA) was 0.5 µg/mL (≈ 1.05 µM). It also gave an MIC ([1]; MSSA, S. aureus IHMA 1609919, MSSA / VSSA) of 0.25 µg/mL (≈ 0.525 µM), an MIC ([1]; MSSA, S. aureus IHMA 1622864, MSSA / VSSA) of 0.25 µg/mL (≈ 0.525 µM) and an MIC ([1]; MSSA, S. aureus IHMA 1626392, MSSA / VSSA) of 0.5 µg/mL (≈ 1.05 µM). For the same molecule, the MIC ([1]; MSSA, S. aureus IHMA 1713793, MSSA / VSSA) was 0.5 µg/mL (≈ 1.05 µM), the “inhibitory effect on human hERG ion channels” value ([2]; 150 μM, in words) was “No statistically significant inhibitory effect” and the “Significant (hERG inhibition)” value ([2]; hERG, 150 µM) was “No (Only results showing an inhibition higher than 50% are considered to represent significant effects of the tested compounds)”. The “Normalized inhibition (%)” value ([2]; hERG, 150 µM, n = 8) was 27%.
